# Measured values taken from patent US20260306460A1, “COMPOSITION FOR REMOVING AND INHIBITING SENESCENT CELLS, AND USES THEREOF” (LIFECEUTIX CO., LTD., priority 2023, published 2026).
# Legend:
# Assay type in all cases: in vivo, mouse
# [1] = system: carbon tetrachloride-induced liver fibrosis mice; experiment: Carbon tetrachloride-induced liver fibrosis mice, Example 31, Table 57; details: CCl4-induced liver fibrosis mice, untreated = 100%
# Outline: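 Mice with induced hepatic fibrosis received either the test compound or, as controls, an equal volume of vehicle solution alone. Once dosing ended, liver tissue was harvested and total RNA was isolated. cDNA was synthesized from this RNA, and quantitative RT-PCR was run on it to measure hepatic mRNA levels of the fibrosis- and senescence-related genes.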
# [2] = system: naturally aged C57BL6J mice; experiment: p16 mRNA in organs of naturally aged mice, Example 21-2, Table 18; details: 22-month-old naturally aged mice, untreated aged = 100%
# Method: 22-month-old female C57BL6J mice (KRIBB Laboratory Animal Resource Center) were acclimated to the experimental environment for one week, after which the aged mice were randomly assigned to experimental and control groups. Eight-week-old, non-aged mice served as controls. LX-403 was mixed in a 10% ethanol solution of PEG400 and administered orally at a concentration of 25 mg/kg daily for 21 days, or administered to the skin, joints, or eyes at a concentration of 1 μM. LX-1801 was mixed in distilled water with 4% DMSO, 30% PEG300, and 5% Tween80 and administered to the skin, joints, or eyes at a concentration of 0.4 μM daily for 21 days. LX-2001 was mixed in PBS and administered to the skin, joints, or eyes at a concentration of […] daily for 21 days. LX-2002 was mixed in distilled water with 4% DMSO, 30% PEG300, and 5% Tween80 and administered to the skin, joints, or eyes at a concentration of 2 μM daily for 21 days. […] LX-2005 was mixed in distilled water with 4% DMSO, 30% PEG300, and 5% Tween80 and administered to the skin, joints, or eyes at a concentration of 90 μM daily for 21 days. LX-2007 was mixed in distilled water with 4% DMSO, 30% PEG300, and 5% Tween80 and administered to the skin, joints, or eyes at a concentration of 90 μM daily for 21 days. […] LX-3002 was mixed in distilled water with 4% DMSO, 30% PEG300, and 5% Tween80 and administered orally at a concentration of 10 mg/kg daily for 21 days. […] LX-5411 was mixed in 5% PBS and administered orally at a concentration of 10 mg/kg daily for 21 days or administered to the skin, joints, or eyes at a concentration of 3 μM. LX-5701 was mixed in PBS and administered orally at a concentration of 360 mg/kg daily for 21 days. LX-6807 was mixed in saline and administered intraperitoneally at a concentration of 1 mg/kg daily for 21 days. LX-2101 or LX-2102 was mixed in PBS solution with 5% DMSO and administered intraperitoneally at a concentration of 20 mg/kg or 10 mg/kg, respectively, daily for 21 days. The control group received only the solution in the same volume. After the end of drug administration, the methods described in each example below were performed.
# Mice were sacrificed, and RNA was extracted from each organ tissue using the same method as in Example 7-2 of WO2023-085787 A1. qRT-PCR was performed with the synthesized cDNA. […] The amount of p16 mRNA after aging was calculated as 100% and compared with the amount of p16 mRNA after test compound treatment.
# [3] = system: obesity-induced aged C57BL6J mice; experiment: Diabetes and complications (HbA1c, wound size, VEGF mRNA) in obesity-aged mice, Example 23-6, Table 46; details: for VEGF mRNA: eye, qRT-PCR, amount after aging calculated as 100%; for diabetic foot ulcer size: full-thickness 5 mm×5 mm wound, untreated 4.2 (±0.4); for diabetic foot ulcer size / HbA1c: obesity-induced diabetes mice; for HbA1c: serum, daily for 21 days, untreated 6.9 (±1.5)
# Method: 15-week-old male C57BL6J mice (The Jackson Laboratory) were induced to obesity by a high-fat diet using the same method as in Example 9-1 WO2023-085787 A1. After acclimation to the experimental environment for one week, the mice were randomly assigned to experimental and control groups. […] LX-3002 was mixed in distilled water with 4% DMSO, 30% PEG300, and 5% Tween80 and administered orally at a concentration of 10 mg/kg daily for 21 days. LX-5701 was mixed in PBS and administered orally at a concentration of 360 mg/kg daily for 21 days. LX-6807 was mixed in saline and administered intraperitoneally at a concentration of 1 mg/kg daily for 21 days. The control group received only the solution in the same volume. After the end of drug administration, the methods described in each example below were performed.
# Serum collected from mice using the same method as in Example 7-5 of WO2023-085787 A1 was used to measure glycated hemoglobin (HbA1c), a marker of hyperglycemia and diabetes. Furthermore, the improvement in diabetic foot ulcers and diabetic retinopathy, major complications of diabetes, was analyzed. Specifically, a diabetic foot ulcer model was created by creating a full-thickness 5 mm×5 mm wound on the left dorsal skin of mice induced with obesity-induced diabetes. The wound size was measured under untreated and treated conditions with the test compound, and the healing effect was analyzed. In addition, the mRNA amount of VEGF, a marker of angiogenesis in retinopathy, was measured from the eye using qRT-PCR as described in Example 7-2 of WO2023-085787 A1. The qRT-PCR results were calculated as 100% for the amount of each factor after aging was induced, and compared with the amount of each factor after treatment with the test compound.
molecule,measurement,setting,value
O=C(C(C[N+](=O)[O-])=NO)N1CCN(C(c2ccc(Cl)cc2)c2ccc(Cl)cc2)CC1 [LX-403],Liver p16 mRNA,[1],51 (±3.8) %
same,Col1a1 mRNA,[1],48 (±5.8) %
S=C(N/N=C1\CCCc2cccnc21)N1CCN(c2ccccn2)CC1 [LX-801],Liver p16 mRNA,[1],57 (±9.3) %
same,Col1a1 mRNA,[1],63 (±11.5) %
"C[C@@H]1CC[C@@]23C[C@H](O)C(=O)[C@@]2(O)[C@]1(C)[C@H](OC(=O)CCl)C[C@@H](C1=CCn2c(=O)n(-c4ccccc4)c(=O)n2C1)[C@@H]3C [LX-1801, (2S,3aS,4S,5R,7R,8S,8aS,11R)-7-(1,3-Dioxo-2-phenyl-2,3,5,8-tetrahydro-1H-[1,2,4]triazolo[1,2-a]pyridazin-6-yl)-2,3a-dihydroxy-4,8,11-trimethyl-3-oxooctahydro-1H-4,8a-propanoazulen-5-yl 2-Chloroacetate]",Liver p16 mRNA,[1],55 (±9.8) %
same,Col1a1 mRNA,[1],58 (±7.9) %
"CC1(C)CC[C@]2(NC(=O)C(C)(F)F)CC[C@]3(C)[C@H](C(=O)C=C4[C@@]5(C)C=C(C#N)C(=O)C(C)(C)[C@@H]5CC[C@]43C)[C@@H]2C1 [LX-2101, Omaveloxolone]","p16 mRNA (%), Brain",[2],62%
same,"p16 mRNA (%), Eye",[2],62%
same,"p16 mRNA (%), Femur",[2],61%
same,"p16 mRNA (%), Heart",[2],78%
same,"p16 mRNA (%), Kidney",[2],46%
same,"p16 mRNA (%), Knee joint",[2],75%
same,"p16 mRNA (%), Liver",[2],62%
same,"p16 mRNA (%), Lung",[2],54%
same,"p16 mRNA (%), Muscle",[2],82%
same,"p16 mRNA (%), Skin",[2],80%
same,"p16 mRNA (%), eWAT",[2],42%
"COC(=O)[C@]12CCC(C)(C)C[C@H]1[C@H]1C(=O)C=C3[C@@]4(C)C=C(C#N)C(=O)C(C)(C)[C@@H]4CC[C@@]3(C)[C@]1(C)CC2 [LX-2102, Bardoxolone methyl]","p16 mRNA (%), Brain",[2],85%
same,"p16 mRNA (%), Eye",[2],72%
same,"p16 mRNA (%), Femur",[2],64%
same,"p16 mRNA (%), Heart",[2],81%
same,"p16 mRNA (%), Kidney",[2],53%
same,"p16 mRNA (%), Knee joint",[2],64%
same,"p16 mRNA (%), Liver",[2],58%
same,"p16 mRNA (%), Lung",[2],71%
same,"p16 mRNA (%), Muscle",[2],75%
same,"p16 mRNA (%), Skin",[2],77%
same,"p16 mRNA (%), eWAT",[2],39%
"CCCC\C=C/C=C/C=C\CCCCCCCC(=O)O [LX-2707, Punicic acid]",VEGF mRNA,[3],76 (±4.0) %
same,diabetic foot ulcer size,[3],3.4 (±0.3) mm
same,HbA1c,[3],6.1 (±0.6) %
"COC(=O)[C@H]1Cc2c([nH]c3ccccc23)[C@H](c2ccc(S(C)(=O)=O)cc2)N1C(=O)CCl [LX-5401, methyl (1S,3R)-2-(2-chloroacetyl)-1-(4-(methylsulfonyl)phenyl)-2,3,4,9-tetrahydro-1H-pyrido[3,4-b]indole-3-carboxylate]",Liver p16 mRNA,[1],61 (±13.2) %
same,Col1a1 mRNA,[1],72 (±5.9) %
C#CC(=O)N1[C@@H](CCCC)Cc2cc(OC)ccc2[C@@H]1c1ccc(NC23CC4CC(CC(C4)C2)C3)cc1 [LX-5411],Liver p16 mRNA,[1],53 (±9.9) %
same,Col1a1 mRNA,[1],43 (±16.1) %
O=C1C2CCN(CC2)C1CNC(=O)C(F)(F)F (stereo not shown) [LX-5701],"p16 mRNA (%), Brain",[2],71%
same,"p16 mRNA (%), Eye",[2],63%
same,"p16 mRNA (%), Femur",[2],70%
same,"p16 mRNA (%), Heart",[2],72%
same,"p16 mRNA (%), Kidney",[2],42%
same,"p16 mRNA (%), Knee joint",[2],66%
same,"p16 mRNA (%), Liver",[2],34%
same,"p16 mRNA (%), Lung",[2],58%
same,"p16 mRNA (%), Muscle",[2],64%
same,"p16 mRNA (%), Skin",[2],75%
same,"p16 mRNA (%), eWAT",[2],51%
same,VEGF mRNA,[3],61 (±10.6) %
same,diabetic foot ulcer size,[3],3.0 (±0.9) mm
same,HbA1c,[3],5.0 (±1.3) %
"Cc1cccc([C@H](C)c2cnc[nH]2)c1C [LX-6807, Dexmedetomidine]",VEGF mRNA,[3],68 (±1.6) %
same,diabetic foot ulcer size,[3],3.3 (±0.5) mm
same,HbA1c,[3],5.4 (±0.5) %
Tocofersolan [LX-3001],VEGF mRNA,[3],77 (±2.4) %
same,diabetic foot ulcer size,[3],3.5 (±0.2) mm
same,HbA1c,[3],6.4 (±0.4) %
